Data on three compounds can be found in patent US12285498B2, “Pharmaceutical composition with nanoparticle-based drug delivery combined with non-invasive radiographic monitoring model” (NANOMEDTRIX, LLC, priority 2023, dated 2025).

Read-outs that look alike come from different tables or passages of the source. Some results are limits rather than exact numbers.

What is called AUC is concentration integrated over time. The term Cmax denotes the highest concentration seen after dosing.

Data set [1] in a line: in vivo. An excerpt:
The following discusses oral administration and detection of the drug delivered orally. There is a need for oral drug delivery, i.e., it facilitates self-medication, storage, and reduced burden on the clinician, allowing for remote monitoring.

The conditions of data set [2]: intravenous, cited from earlier work.
Data set [3] in a line: in vivo. An excerpt: Blood, urine, and stools were collected to evaluate renal and gastro-intestinal clearance of nanomaterials. Sequential and simultaneous administration of one material and before the start of another to allow full clearance.
Both strains were obtained from Inotiv (Indianapolis, IN, USA). F344 rats were instilled with rat AY27 bladder cancer cells and athymic nude rats were instilled with human male bladder cancer strains: T24 and UMUC-3. […] In these rats, blood/urine were collected, but spared from PK/PD studies to avoid confounding results. In this cohort, rats (n=3) were instilled with tumors and treated with sequential intravesical and oral drug-MSN 3-drugs load and body fluids (blood/urine) collection at the same prescribed time points. An example: four rounds of treatment were administered fluid collected n=3 samples at each time point.
This is another data set of the same source.

For data set [4] the following is noted: known value; cited from earlier work.
Data set [5] is described as follows: PK, intravenous administration of drug alone (current study). Format: in vivo, rat. The note with it: for Cmax: 3 mg/kg DOC, 12 mg/kg GEM, 6 mg/kg MMC; for AUC: read-out: AUC (Plasma Curves). How it is done:
Adult female rats are 250-300 g in body weight, or 10-15 times larger than adult C57-BI6 mice. The volume of an aqueous solution given by oral gavage procedure can be up to 5 mL/kg, thus for a 300 g rat, 1.5 mL volume is achievable (Turner, J Am Assoc Lab Anim Sci. 51(1): 25-30.). This permits a mass of 150 mg MSN, or the equivalent dose of free drug. The recommended volume of a tail vein injection is also 5 mL/kg, thus 150 mg MSN or equivalent drug can be administered by i.v. as well (https://research.unc.edu/files/2020/12/rat-handling-and-techniques.pdf).
We compared the one or 2 drugs to experiment carried out intravenous/systemic and/or intravesicular drug alone.

The conditions of data set [6]: oral, 50 mg/kg; cited from earlier work.
For data set [7] the following is noted: intravenous, cited from earlier work. This is another data set of the same source.
The conditions of data set [8]: rat, in vivo.
The conditions of data set [9]: intravenous, cited from earlier work. This is another data set of the same source.
The nature of data set [10]: Comparison of AUC for drug-MSN versus drug administered alone (FIG. 7). The note with it: rat, in vivo.
Setting [11] is: female, rat, in vivo, po, 3 mg/kg.
[12] abbreviates: female, rat, in vivo, po, Cmax in stool.
[13] abbreviates: female, rat, in vivo, po, Cmax in urine.
Setting [14] is: female, rat, in vivo, Cmax in stools.
[15] abbreviates: female, rat, in vivo, initial concentration (Cmax) in urine.
Where [16] appears, read: female, rat, plasma, read-out: Cmax.
Where [17] appears, read: female, rat, in vivo, po, 12 mg/kg.

With `CC(=O)O[C@@]12CO[C@@H]1C[C@H](O)[C@@]1(C)C(=O)[C@H](O)C3=C(C)[C@@H](OC(=O)[C@H](O)[C@@H](NC(=O)OC(C)(C)C)c4ccccc4)C[C@@](O)([C@@H](OC(=O)c4ccccc4)[C@H]21)C3(C)C` [Docetaxel], the AUC was found to be 0.0133 µg·h/mL in “in vivo [1]” (setting [11]) and 0.016 µg·h/mL in data set [5] (female, rat, plasma, 3 mg/kg). Besides, the Clearance in “in vivo [1]” (setting [11]) was 45.11 L/h; in data set [5] (female, rat, plasma, 3 mg/kg) it was 624 mL/min. Moreover, the tmax amounted to 60 min in the data set “in vivo [1]” (setting [11]) and 15 min in [5] (female, rat, plasma, 3 mg/kg, read-out: tmax). The Cmax in “in vivo [1]” (setting [12]) is 352 ng/mL; in “in vivo [1]” (setting [13]), 413 ng/mL; in [2] (2 mg/kg), 68 ± 10 ng/mL; in [2] (5 mg/kg), 7000 ng/mL; in data set [2] (8 mg/kg), 950 ng/mL; in the data set “in vivo [3]” (setting [14]), 9.44 ng/mL. In addition, the Cmax is 16600 ng/mL in “in vivo [3]” (setting [15]) and 116 ng/mL in [5] (setting [16]). In the data set “in vivo [1]” (rat, in vivo, po), the “time of Cmax in stool” value is 6 h. The “AUC (Plasma Curves)” value was 0.277 µg·h/mL in data set [2] (2 mg/kg), 16367.39 µg·h/mL in data set [2] (5 mg/kg) and 2.2 ± 0.3 µg·h/mL in data set [2] (8 mg/kg). Besides, in “in vivo [3]” (rat, in vivo), the detection in plasma result is listed as “below the detection threshold”. Moreover, the “time of Cmax in stools” value in “in vivo [3]” (rat, in vivo) is on record as 24 h. In addition, the oral bioavailability in [4] is 10%.
`Nc1ccn([C@@H]2O[C@H](CO)[C@@H](O)C2(F)F)c(=O)n1` [Gemcitabine]: the “AUC (Plasma Curves)” value was 16132.95 ± 5128.0 µg·h/mL in data set [6], 22.69 ± 4.14 µg·h/mL in [7] (15 mg/kg), 133 ± 20 µg·h/mL in data set [7] (20 mg/kg) and 5031.61 ± 927.4 µg·h/mL in data set [7] (50 mg/kg). The Cmax in [6] is 1181.17 ± 47.1 ng/mL; in the data set “in vivo [1]” (setting [12]) it was 26.1 ng/mL; in “in vivo [1]” (setting [13]), 4740 ng/mL; in the data set “in vivo [3]” (setting [14]) it was 2.23 ng/mL; in the data set “in vivo [3]” (setting [15]), 55600 ng/mL; in data set [5] (setting [16]), 1790 ng/mL. Also, the tmax in [6] was 90 ± 54 min; in the data set “in vivo [1]” (setting [17]) it was 30 min; in “in vivo [3]” (female, rat, in vivo, 12 mg/kg) it was 15 min; in [7] (15-20 mg/kg) it was 4.98 min; in data set [5] (female, rat, plasma, 12 mg/kg, read-out: tmax) it was 15 min. Further, the AUC turned out to be 1.14 µg·h/mL in “in vivo [1]” (setting [17]); 0.28 µg·h/mL in the data set “in vivo [3]” (female, rat, in vivo, 12 mg/kg); 2.3 µg·h/mL in [5] (female, rat, plasma, 12 mg/kg). The Clearance in the data set “in vivo [1]” (setting [17]) is 2.109 L/h; in “in vivo [3]” (female, rat, in vivo, 12 mg/kg), 143 mL/min; in [7] (15 mg/kg), 393.29 L/h/m^2; in data set [7] (20 mg/kg), 89.46 L/h/m^2; in data set [7] (50 mg/kg) it was 29.56 L/h/m^2; in data set [5] (female, rat, plasma, 12 mg/kg) it was 17.4 mL/min. In addition, the “time of Cmax in stool” value in “in vivo [1]” (rat, in vivo, po) was 6 h. Besides, the “plasma Cmax as % of Cmax for urine” value in “in vivo [3]” (female, rat, in vivo) was around 1%. Also, the “time of Cmax in plasma” value in “in vivo [3]” (rat, in vivo) was at most 15 min. Further, the “time of Cmax in stools” value in “in vivo [3]” (rat, in vivo) was determined as 24 h. For the same compound, the oral bioavailability in [4] was 10%. In addition, in [8], the “AUC, drug alone compared with drug-loaded MSN” value is “higher for drug alone”.
For `CO[C@@]12[C@H](COC(N)=O)C3=C(C(=O)C(C)=C(N)C3=O)N1C[C@@H]1N[C@@H]12` [Mitomycin C, Mitomycin c], the tmax in “in vivo [1]” (drug alone, oral, plasma) is 30 min; in “in vivo [3]” (drug alone, intravesical, plasma), 15 min; in [5], 15 min; in data set [9] (4 mg/kg), 15 min; in data set [9] (5 mg/kg), 4.98 min. In “in vivo [1]” (oral administration, stool), this compound returned a Cmax in stool of 157.09 ng/mL. Besides, the Cmax in urine in the data set “in vivo [1]” (oral administration, urine) was 16135.89 ng/mL. Further, the Cmax in the data set “in vivo [3]” (drug alone, intravesical, 3 mg/kg DOC, 12 mg/kg GEM, 6 mg/kg MMC, plasma) is 32.19 ng/mL; in [5] (plasma) it was 39.5 ng/mL; in data set [9] (4 mg/kg) it was 800 ng/mL; in data set [9] (5 mg/kg) it was 12800 ± 400 ng/mL. In addition, the Cmax in stools in the data set “in vivo [3]” (intravesical administration, stools) is 94.22 ng/mL. For the same compound, in the data set “in vivo [3]” (intravesical administration, urine, 15 minutes following administration), the “initial concentration (Cmax) in urine” value was determined as 29498.07 ng/mL. Also, the “AUC, drug alone compared with drug-loaded MSN” value in data set [10] was “higher for drug alone”.
